Measured values as given in US20130039956A1, “USE OF NITROCARBOXYLIC ACIDS FOR THE TREATMENT, DIAGNOSIS AND PROPHYLAXIS OF AGGRESSIVE HEALING PATTERNS” (priority 2010, published 2013).

Tests used:
[1] = system: fibroblasts; assay: Mechanical alteration of fibroblasts (cyclic stretching of coated polypropylene meshes); type: cell-based; settings: cyclic stretching, day 7, day 21, 8 weeks, compared with native FA; further: key: 0: not superior to native FA (control); +: Superior to native FA; ++: superior to both; +++: outstanding effect
From the text: In order to simulate the effects of chronic shear forces on a healing wound, an in vitro model was established. A flat balloon was placed on the bottom of a Petri dish. A silicone sheet was placed above and sealed with the side of the Petri dish. Then a 3 mm agar layer was casted on top of the sheet. Commercially available polypropylene meshes for hernia repair (microporous mesh, a low-weight and macroporous mesh with absorbable polyglactin filaments, and a heavy-weight and microporous mesh) were placed on the agar plates and fixed at 4 points at the side of the Petri dish. This setting enabled stretching of the meshes by filling the balloons with air, which was performed at 10-second intervals using an automated pumping device. The model can be used to evaluate the effect of three-dimensional (3D) shear forces on cell growth during cell cultivation. Preincubated suspensions of fibroblasts (1.5×10(5) cells) in a culture medium (10% FCS) were added to the culture dishes and allowed to grow for 48 hours. Cyclic stretching was started at day 3. Histological analysis was performed from the central portions of the meshes at day 7, at day 21, and after 8 weeks. The scaffolds were detached from the culture plate and carefully rinsed. Then, they were cut into pieces, casted, and further processed for standard histology and immunohistology. Care was taken to achieve a cutting plane that was vertical to the surface plane of the meshes. Histological analysis evaluated the cellularity, the content of extra cellular matrix (ECM), and the magnitude of protein synthesis. Meshes were dip-coated with native and nitro fatty acids or left blank in the same manner as in example 1. The uncoated meshes served as controls.

[2] = system: canine cutaneous mastocytoma cells; assay: Toxin response of mast cells (mastoparan, Streptolysin O, UVB); type: cell-based; settings: preincubation 10 and 100 μmol, compared with native FA
Description: In order to determine membrane stabilizing and anticytotoxic properties of nitrated fatty acids, an in vitro model utilizing canine cutaneous mastocytoma cells was chosen. Cells were cultured according to standard procedure. Cytotoxic effects were quantified by measuring not only by Ca^2+ influx, histamine, and TNFα release, but also by using the MTT assay. Cell suspensions were incubated with 0.9% saline, one of the nitrocarboxylic acids as listed in table 1 or the respective native fatty acid as to achieve a final concentration of 10 and 100 μmol which was given to the medium 15 min before toxin application.
Mastoparan suspended in a buffer solution was added to the preincubated mast cell suspensions to achieve a final concentration of 10 or 30 μmol, respectively. Measurements were performed after 1 hour incubation time. […] Preincubation of mast cells with nitrated fatty acids reduced the effects on Ca^2+ influx, histamine release, and apoptosis induction in a dose-dependent manner, with an almost complete absence of apoptosis at a concentration of 100 μmol.
Streptolysin O was given to preincubated suspensions to achieve a final concentration of 500 ng/ml. Measurements were performed after 2 hours. Releases of histamine and TNFα in the suspensions were measured. After saline preincubation, a significant release of histamine and TNFα was observed.
Cell plates were exposed to a single dose (250 mJ/cm2) of UVB using a lamp (Saalmann, Herford, Germany) emitting most of its energy within the UVB range (295 to 315 nm). Tryptase levels in the supernatants were determined after 30 minutes, and concentrations of TNFα after 60 minutes. After preincubation with saline, there was a marked increase of tryptase. Preincubation with native fatty acids led to a dose-dependent reduction of tryptase release, which was significant at the lower irradiation dose but not after exposure to a high irradiation dose. […] For all nitrated fatty acids that were used the results were mostly inside the same range. Relative differences can be represented as follows: […]

[3] = system: female Sprague-Dawley rats; assay: Fibrogenesis in an in-vivo model of soft implant implantation; design: species or system rat; settings: subcutaneous implants, 120 days, compared with native FA; further: key: 0: not superior to native FA (control); +: Superior to native FA; ++: superior to both; +++: outstanding effect
Description: Silicone bag-gel miniprostheses (POLYTECH Health & Aesthetics GmbH, Dieburg, Germany) having a diameter of 2 cm and a volume of approximately 2 ml were used. […] The experimentally used implant models had two small tags which allowed the implants to be suspended during the coating procedures.
Each implant was treated in the following manner: cleaning by sonication for 2 min each in the following sequence of solvents: acetone, toluene, acetone, ethanol, and water. Implants were exposed to Piranha solution for 60 min and rinsed with deionized water. They were then immersed in a 20% aqueous solution of ammonium fluoride for 45 min to obtain a hydrogen-passivated Si surface. The ammonium fluoride solution was sparged with nitrogen for 15 min to remove dissolved oxygen. Prepared implants were transferred to a glass chamber filled with an inert atmosphere where they were suspended so that no part of their surface came in contact with the container. The container was filled with a 1-hexadecene solution and heated at 150° C. at a pressure of 2 Torr for 120 min. Prepared implants were cleaned in the following sequence of solvents: acetone, ethanol, and water. Formation of self assembled monolayer was controlled by measuring surface hydrophobicity; the contact angle was about 105°. Dry implants suspended in the container were then bathed in an ethanolic solution of oleic acid or nitro-oleic acid at a temperature of 40° C. for 120 min. Thereafter, the solution was allowed to run out slowly through an outlet at the bottom of the container. The emptying container was filled with inert gas in which the samples were maintained for 24 hours. Then samples were bathed three times in an ethanolic solution, followed by a final rinsing with sterile water. After drying, the container with the prepared implant was sterilized using ethylene oxide and stored at 20° C.
For in vivo testing, 24 uncoated and 24 coated implants were investigated in 24 female Sprague-Dawley rats (190-230 g). In the anesthetized animals, bilateral dorsal pockets in the subcutaneum were created by blunt dissection through paired paravertebral incisions. Each animal received one coated implant and one control implant on opposite sides, alternating sides on successive animals. Animals were housed and fed according to institutional standards for 120 days. Animals were sacrificed with chloroform. The implants and the adhering tissue were extracted by en bloc resection. The implants were cannulated and the liquid silicone gel was replaced by paraffin. Thereafter, the complete tissue block was prepared by standard means of histology, and stained with H&E or Masson's trichrome.

CCCCCCCC/C=C(\CCCCCCCC(=O)O)[N+](=O)[O-] [compound 9, 9-nitro-trans-oleic acid]
Relative effect on fibroblasts under mechanical alteration [1]: + | Relative differences: effect on toxin response of mast cells [2]: ++ | Relative effect of surface coating on fibrogenesis around silicone implants [3]: +

9,10-nitro-trans-oleic acid [compound 15]
Relative effect on fibroblasts under mechanical alteration [1]: + | Relative differences: effect on toxin response of mast cells [2]: ++ | Relative effect of surface coating on fibrogenesis around silicone implants [3]: +

CCCCC/C=C(/C/C=C\C/C=C\C/C=C\C/C=C\CCC(=O)O)[N+](=O)[O-] [compound 5, 16-nitro-all-cis-4,7,10,13,16-docosapentaenoic acid]
Relative effect on fibroblasts under mechanical alteration [1]: ++ | Relative differences: effect on toxin response of mast cells [2]: +

CCCCCC/C=C(\CCCCCCCC(=O)O)[N+](=O)[O-] [compound 16, 9-nitro-9-trans-hexadecenoic acid]
Relative effect on fibroblasts under mechanical alteration [1]: ++ | Relative differences: effect on toxin response of mast cells [2]: ++ | Relative effect of surface coating on fibrogenesis around silicone implants [3]: 0

CCCCCC=CCC=C(CC=CCC=CCCCC(=O)O)[N+](=O)[O-] [compound 14, 11-nitro-5,8,11,14-eicosatrienoic acid]
Relative effect on fibroblasts under mechanical alteration [1]: 0 | Relative effect of surface coating on fibrogenesis around silicone implants [3]: +

CCCCCCCC/C(=C/CCCCCCCC(=O)O)[N+](=O)[O-] [compound 3, 10-nitro-cis-oleic acid]
Relative effect on fibroblasts under mechanical alteration [1]: ++ | Relative differences: effect on toxin response of mast cells [2]: +++ | Relative effect of surface coating on fibrogenesis around silicone implants [3]: ++

CC/C=C\C/C=C\C/C(=C/C/C=C\C/C=C\CCCCCC(=O)O)[N+](=O)[O-] [compound 7, 14-nitro-all-cis-7,10,13,16,19-docosapentaenoic acid]
Relative effect on fibroblasts under mechanical alteration [1]: + | Relative differences: effect on toxin response of mast cells [2]: ++

CCCCCC=CCC=C(CC=CC/C=C\CCCC(=O)O)[N+](=O)[O-] [compound 22, 11-nitro-cis-5,8,11,14-eicosatetraenoic acid]
Relative effect on fibroblasts under mechanical alteration [1]: ++ | Relative differences: effect on toxin response of mast cells [2]: ++ | Relative effect of surface coating on fibrogenesis around silicone implants [3]: ++

CCCCCC/C=C(/CCCCCCCC(=O)O)[N+](=O)[O-] [compound 13]
Relative effect on fibroblasts under mechanical alteration [1]: + | Relative effect of surface coating on fibrogenesis around silicone implants [3]: +

CCCCC/C=C(/C/C=C\C/C=C(/C/C=C\CCCC(=O)O)[N+](=O)[O-])[N+](=O)[O-] [compound 18, 8,14-nitro-cis-5,8,11,14-eicosatetraenoic acid]
Relative effect on fibroblasts under mechanical alteration [1]: + | Relative differences: effect on toxin response of mast cells [2]: 0

CCC=CCC=C(CC=CCC=CCC=CCC=C(CCC(=O)O)[N+](=O)[O-])[N+](=O)[O-] [compound 19, 4,16-nitro-docosahexaenoic acid]
Relative effect on fibroblasts under mechanical alteration [1]: ++ | Relative differences: effect on toxin response of mast cells [2]: 0

CCCCCCCC/C(=C\CCCCCCCC(=O)O)[N+](=O)[O-] [compound 12, 10-nitro-trans-oleic acid]
Relative effect on fibroblasts under mechanical alteration [1]: + | Relative differences: effect on toxin response of mast cells [2]: ++

5-nitro-eicosatrienoic acid [compound 4]
Relative effect on fibroblasts under mechanical alteration [1]: + | Relative differences: effect on toxin response of mast cells [2]: +

CCCCCCCCCCC/C=C(/CCCCC(=O)O)[N+](=O)[O-] [compound 21, 6-nitro-cis-6-octadecenoic acid]
Relative effect on fibroblasts under mechanical alteration [1]: + | Relative effect of surface coating on fibrogenesis around silicone implants [3]: +

CC/C=C\C/C=C\C/C=C(/CCCCCCCC(=O)O)[N+](=O)[O-] [compound 6, 9-nitro-all-cis-9-12,15-octadecatrienoic acid]
Relative effect on fibroblasts under mechanical alteration [1]: ++ | Relative differences: effect on toxin response of mast cells [2]: ++ | Relative effect of surface coating on fibrogenesis around silicone implants [3]: ++

CCCCCCCC/C=C(/CCCCCCCC(=O)O)[N+](=O)[O-] [compound 1, 9-nitro cis-oleic acid]
Relative effect on fibroblasts under mechanical alteration [1]: +++ | Relative differences: effect on toxin response of mast cells [2]: +++ | Relative effect of surface coating on fibrogenesis around silicone implants [3]: ++

CCCCC/C=C\C/C(=C\CCCCCCCC(=O)O)[N+](=O)[O-] [compound 2, 10-nitro-cis-linoleic acid]
Relative effect on fibroblasts under mechanical alteration [1]: +++ | Relative differences: effect on toxin response of mast cells [2]: ++ | Relative effect of surface coating on fibrogenesis around silicone implants [3]: ++

CCCCC=C(C=CC=CCCCCCCCC(=O)O)[N+](=O)[O-] [compound 11, 13-nitro-octadeca-9,11,13-trienoic acid]
Relative effect on fibroblasts under mechanical alteration [1]: + | Relative differences: effect on toxin response of mast cells [2]: + | Relative effect of surface coating on fibrogenesis around silicone implants [3]: +

CCCCCCCC/C=C(/CCCCCCCCCCCCCC(=O)O)[N+](=O)[O-] [compound 8, 15-nitro-cis-15-tetracosenoic acid]
Relative effect on fibroblasts under mechanical alteration [1]: + | Relative differences: effect on toxin response of mast cells [2]: + | Relative effect of surface coating on fibrogenesis around silicone implants [3]: +

9,10-nitro-cis-oleic acid [compound 10]
Relative effect on fibroblasts under mechanical alteration [1]: ++ | Relative differences: effect on toxin response of mast cells [2]: +++ | Relative effect of surface coating on fibrogenesis around silicone implants [3]: ++

CCCCCCCC/C=C(/CCCCCCCCCCCC(=O)O)[N+](=O)[O-] [compound 17, 13-nitro-cis-13-docosenoic acid]
Relative effect on fibroblasts under mechanical alteration [1]: + | Relative differences: effect on toxin response of mast cells [2]: +
